In the assay the test system is MALME3 melanoma viability, CellTiter-Glo luminescence, 24 h. As to the kind of experiment: MALME3 melanoma cell viability loss, dose response, orthogonal assay for MITF inhibitor project, CellTiter-Glo, cherry-picked (AID 493191). For orientation: ATP-based viability assays read luminescence as a measure of living cells.
By AC50 is commonly meant the concentration giving half of the maximal activity seen. Take `COc1ccc(-c2nn(-c3ccccc3)cc2/C=N/N=C(N)N)cc1OC`: the AC50 was 21.9 µM.

For the molecule `CCN(CC)S(=O)(=O)c1ccc(NC(=O)c2cccnc2Cl)c(NC(=O)c2cccnc2Cl)c1`, the AC50 is 25.6 µM.

For `COc1ccc(N(Cc2cc(=O)[nH]c3ccccc23)C(=O)CCl)cc1`, the AC50 was 15.8 µM.

As for `CC(=O)Nc1sc(C)c(C)c1C(=O)OCC(=O)N(CC(C)C)c1c(N)n(Cc2ccccc2)c(=O)[nH]c1=O`, the AC50 is 6.17 µM.

Turning to `CCNC1=C(Cl)C(=O)c2ccccc2C1=O`, the AC50 was 15.3 µM.

Regarding `Cc1ccc(NC(=O)CCC(=O)N/N=C/c2ccc([N+](=O)[O-])o2)cc1C`, the AC50 is 21.9 µM.

For the molecule `CC(C)(C)C(=O)Cn1ncc(Br)c(Br)c1=O`, the half-maximal activity concentration (AC50) was 17.7 µM.

On to `CC1CCC(C(C)C)C(OC(=O)Cn2c(-c3ccc(F)cc3)[n+](C)c3ccccc32)C1` (stereo not given), for which the half-maximal activity concentration (AC50) was 12.5 µM.

Turning to `O=C(CS(=O)c1ccc(C(F)(F)F)cc1[N+](=O)[O-])Oc1ccccc1` (stereo not given), the concentration at half-maximal activity (AC50) was 20.7 µM.

With `CC1(C(=O)N/N=C/c2ccc([N+](=O)[O-])o2)CC1(Br)Br` (stereo not given), the AC50 was 34 µM.

For `CCOc1c(Br)cc(CNC2CCCCCCC2)cc1OC`, the concentration at half-maximal activity (AC50) is 27.6 µM.

Consider `O=C1C=CC(=C(c2ccc(O)cc2)c2ccc(O)cc2)C=C1`, for which the concentration at half-maximal activity (AC50) was 29.4 µM.

On to `N=c1n(Cc2ccc(Cl)cc2)c2ccccc2n1CC(O)COc1ccccc1` (stereo not given), for which the concentration at half-maximal activity (AC50) was 14.8 µM.

Take `Cc1c(N=C2C=CC(=O)c3ccccc32)c(=O)n(-c2ccccc2)n1C`: the concentration at half-maximal activity (AC50) is 32 µM.

Take `COc1ccc2oc(C(=O)Nc3ccc(S(=O)(=O)N(C)C4CCN(C)CC4)cc3)c(C)c2c1`: the concentration at half-maximal activity (AC50) is 33.5 µM.

On to `O=C(/C=C/c1ccc([N+](=O)[O-])s1)N1CCCCC1`, for which the half-maximal activity concentration (AC50) is 30.7 µM.

As to `COc1cc(NC(=O)COc2ccccc2[N+](=O)[O-])ccc1NC(=O)c1cccs1`, the AC50 is 26.7 µM.

On to `CN1CCN(C2=C(NS(=O)(=O)c3cccs3)C(=O)c3ccccc3C2=O)CC1`, for which the AC50 was 14.6 µM.

Take `CCN1CCN(C2=C(NS(=O)(=O)c3ccc(C)cc3)C(=O)c3ccccc3C2=O)CC1`: the half-maximal activity concentration (AC50) was 11.9 µM.

On to `Cc1nc2ccccc2n1/N=C/c1ccc([N+](=O)[O-])s1`, for which the concentration at half-maximal activity (AC50) was 26.4 µM.

As for `O=C1/C(=N\S(=O)(=O)c2cccs2)C([n+]2ccccc2)=C([O-])c2ccccc21`, the concentration at half-maximal activity (AC50) is 3.81 µM.

As to `COc1cc(NC(=O)c2ccc([N+](=O)[O-])o2)ccc1NC(=O)c1cccs1`, the half-maximal activity concentration (AC50) is 13.1 µM.

Turning to `CCOc1ccc2nc(NC3=NC(c4ccc(OC)cc4)CC(=O)N3)nc(C)c2c1` (stereo not given), the AC50 was 24.6 µM.

`O=C(NC1=C(Nc2ccc(Cl)cc2)C(=O)c2ccccc2C1=O)c1ccccc1`: the half-maximal activity concentration (AC50) is 20.3 µM.

With `C=CCn1c(C)cc(C2=NNC(=NCC)SC2)c1C`, the half-maximal activity concentration (AC50) is 17.6 µM.

On to `O=C(Cc1ccc2c(c1)OCO2)NN=Cc1ccc([N+](=O)[O-])o1`, for which the half-maximal activity concentration (AC50) is 19.1 µM.

As for `OC(CNCC(c1ccc(Cl)cc1Cl)c1c[nH]c2ccccc12)c1ccccc1` (stereo not given), the concentration at half-maximal activity (AC50) was 19.1 µM.

For the molecule `COc1ccccc1-c1cc(C(F)(F)F)nc(S(C)(=O)=O)n1`, the AC50 was 19.6 µM.

Turning to `O=C(CCl)Nc1cccc(S(=O)(=O)N2CCCCCC2)c1`, the AC50 was 17.9 µM.

Turning to `Cc1ccc(C(=O)N/N=C/c2ccc([N+](=O)[O-])s2)cc1`, the AC50 is 22.6 µM.

With `O=C(CNC(=O)c1ccccc1)N/N=C/c1ccc([N+](=O)[O-])s1`, the AC50 was 26.2 µM.

Take `Cc1cc2ncn(/N=C/c3ccc([N+](=O)[O-])o3)c2cc1C`: the concentration at half-maximal activity (AC50) was 15.9 µM.

As to `O=C(CCl)Nc1cccc(Oc2ccccc2)c1`, the AC50 was 28.7 µM.

`CCOC(=O)CSC1=NC(=O)/C(=C/c2ccc(OC)cc2)S1`: the AC50 was 3.6 µM.

`Nc1nc2ccccc2n1/N=C/c1ccc([N+](=O)[O-])s1`: the half-maximal activity concentration (AC50) is 16.3 µM.

On to `O=[N+]([O-])c1ccc(/C=N/N=C/c2ccc([N+](=O)[O-])o2)o1`, for which the concentration at half-maximal activity (AC50) was 12.9 µM.

Turning to `O=C(Nc1ccc(N2CCN(C(=O)c3ccccc3)CC2)cc1)c1ccc([N+](=O)[O-])o1`, the AC50 was 9.02 µM.

With `CCN(CC)CCNC(=O)c1ccc(NC(=O)c2cn(-c3ccccc3)nc2-c2cccs2)cc1`, the AC50 is 17.8 µM.

`N#CC(C#N)=C1C=CC=CN1/C(=C\c1ccco1)C(=O)c1ccc(Cl)cc1`: the AC50 was 27.3 µM.

`O=C(N/N=C/c1cccc2cccnc12)c1ccccc1O`: the concentration at half-maximal activity (AC50) is 29.7 µM.
